Assays:
SIRT1 [1] = molecular target: T1, SIRT1 (Homo sapiens, UniProt Q96EB6); experiment: TAMRA based mass spectrometry assay of SIRT1 activity; type: biochemical; conditions: TAMRA assay; for TAMRA EC1.5 (μM): concentration giving 150% activation of SIRT1; for Emax: percent maximum fold activation, read-out: TAMRA % Fold Act
T1 sequence (Q96EB6 1-747): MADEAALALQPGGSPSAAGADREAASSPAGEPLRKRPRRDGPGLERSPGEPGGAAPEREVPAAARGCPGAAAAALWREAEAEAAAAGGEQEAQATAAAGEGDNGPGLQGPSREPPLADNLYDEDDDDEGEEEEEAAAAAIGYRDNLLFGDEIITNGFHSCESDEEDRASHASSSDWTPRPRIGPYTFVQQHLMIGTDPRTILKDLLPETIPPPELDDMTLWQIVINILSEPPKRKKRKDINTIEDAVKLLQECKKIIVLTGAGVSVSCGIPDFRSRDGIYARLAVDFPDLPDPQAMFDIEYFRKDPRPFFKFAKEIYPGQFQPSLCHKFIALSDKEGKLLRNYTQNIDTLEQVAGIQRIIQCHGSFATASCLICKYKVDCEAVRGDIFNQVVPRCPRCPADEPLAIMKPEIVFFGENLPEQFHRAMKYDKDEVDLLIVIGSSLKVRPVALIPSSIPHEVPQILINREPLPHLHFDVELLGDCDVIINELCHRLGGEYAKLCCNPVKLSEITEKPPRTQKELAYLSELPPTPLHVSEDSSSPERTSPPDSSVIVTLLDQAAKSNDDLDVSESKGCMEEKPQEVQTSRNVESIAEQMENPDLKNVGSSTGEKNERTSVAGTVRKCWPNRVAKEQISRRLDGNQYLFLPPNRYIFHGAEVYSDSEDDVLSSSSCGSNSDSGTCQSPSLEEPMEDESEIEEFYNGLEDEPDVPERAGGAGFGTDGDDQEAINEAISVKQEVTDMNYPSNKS
In short: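 Recombinant N-terminal His-tagged human SIRT1 (10 nM, E. coli) incubated 25 min at 25 °C with 0.5 μM 5TMR-labelled p53-derived acetyl-peptide and 120 μM βNAD+ in Tris-acetate pH 8 buffer with DTT and 0.05% BSA, compound at varying concentrations. Stopped with formic acid; deacetylated peptide or OAADPR measured by mass spectrometry relative to DMSO controls.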

SIRT1 [2] = molecular target: T1, SIRT1; experiment: Trp mass spectrometry assay of SIRT1 activity; type: biochemical; conditions: Trp assay; for Trp EC1.5 (μM): concentration giving 150% activation of SIRT1; for Emax: percent maximum fold activation, read-out: Trp % Fold Act
In short: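 His-tagged SIRT1 expressed in E. coli BL21(DE3), 10 nM, incubated 25 min at 25° C. with 0.5 μM Ac-RHKK(Ac)W-NH2 peptide and 120 μM βNAD+ in 50 mM HEPES pH 7.5, […], 1 mM DTT, 0.05% BSA; formic acid stop. OAADPR or deacetylated peptide measured by mass spectrometry; EC1.5 and percent maximum activation versus DMSO control.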

TAMRA EC1.5 (μM) (SIRT1 [1]) | Emax (SIRT1 [1]) | Trp EC1.5 (μM) (SIRT1 [2]) | Emax (SIRT1 [2]) | SMILES
A (EC1.5<1 μM) | ≥ 350% | C (EC1.5>25 μM) | < 350% | Cc1nc(C(=O)Nc2cnc3ccc(-c4ccccc4Cl)nn23)c(C)s1 [Compound 293]
B (EC1.5 1-25 μM) | < 350% | B (EC1.5 1-25 μM) | < 350% | O=C(Nc1ccnc(OCC(F)(F)F)c1)c1cnc2ccc(-c3ccccc3C(F)(F)F)nn12 [Compound 296]
A (EC1.5<1 μM) | ≥ 350% | B (EC1.5 1-25 μM) | < 350% | O=C(Nc1cnc(OCC(O)CO)cn1)c1cnc2ccc(-c3ccccc3C(F)(F)F)nn12 (stereo not drawn) [Compound 297]
B (EC1.5 1-25 μM) | < 350% | C (EC1.5>25 μM) | < 350% | O=C(Nc1cnc2ccc(-c3ccccc3F)nn12)c1nccs1 [Compound 303]
B (EC1.5 1-25 μM) | < 350% | A (EC1.5<1 μM) | < 350% | O=C(Nc1cnc2ccc(-c3ccccc3F)nn12)c1cccc(OCC(O)CO)n1 (stereo not drawn) [Compound 305]
A (EC1.5<1 μM) | ≥ 350% | A (EC1.5<1 μM) | < 350% | O=C(Nc1cnc2ccc(-c3ccccc3Cl)nn12)c1cccc(N2CCC2)n1 [Compound 308]
A (EC1.5<1 μM) | ≥ 350% | A (EC1.5<1 μM) | < 350% | O=C(Nc1cnc2ccc(-c3ccccc3Cl)nn12)c1cccc(OCC(O)CO)n1 (stereo not drawn) [Compound 309]
A (EC1.5<1 μM) | ≥ 350% | A (EC1.5<1 μM) | ≥ 350% | O=C(Nc1nccc(OCC(F)(F)F)n1)c1cnc2ccc(-c3ccccc3C(F)(F)F)nn12 [Compound 311]
A (EC1.5<1 μM) | ≥ 350% | B (EC1.5 1-25 μM) | ≥ 350% | O=C(Nc1cnc2ccc(-c3ccccc3OC(F)(F)F)nn12)c1ncccn1 [Compound 315]
A (EC1.5<1 μM) | ≥ 350% | C (EC1.5>25 μM) | < 350% | Cc1nc(C(=O)Nc2cnc3ccc(-c4ccccc4OC(F)(F)F)nn23)cs1 [Compound 317]
A (EC1.5<1 μM) | ≥ 350% | B (EC1.5 1-25 μM) | < 350% | Cc1cnc(C(=O)Nc2cnc3ccc(-c4ccccc4OC(F)(F)F)nn23)s1 [Compound 320]
A (EC1.5<1 μM) | ≥ 350% | A (EC1.5<1 μM) | ≥ 350% | O=C(Nc1cnc2ccc(-c3ccccc3OC(F)(F)F)nn12)c1cccc(N2CCOCC2)n1 [Compound 321]
A (EC1.5<1 μM) | ≥ 350% | A (EC1.5<1 μM) | ≥ 350% | O=C(Nc1cnc2ccc(-c3ccccc3OC(F)(F)F)nn12)c1cccc(OCC(O)CO)n1 (stereo not drawn) [Compound 323]
A (EC1.5<1 μM) | ≥ 350% | A (EC1.5<1 μM) | < 350% | CCNc1cccc(NC(=O)c2cnc3ccc(-c4ccccc4Cl)nn23)n1 [Compound 326]
A (EC1.5<1 μM) | ≥ 350% | A (EC1.5<1 μM) | < 350% | CCNc1cccc(NC(=O)c2cnc3ccc(-c4ccccc4F)nn23)n1 [Compound 327]
B (EC1.5 1-25 μM) | < 350% | C (EC1.5>25 μM) | < 350% | N#Cc1ccccc1-c1ccc2ncc(NC(=O)c3cnccn3)n2n1 [Compound 329]
B (EC1.5 1-25 μM) | < 350% | C (EC1.5>25 μM) | < 350% | N#Cc1ccccc1-c1ccc2ncc(NC(=O)c3cscn3)n2n1 [Compound 332]
B (EC1.5 1-25 μM) | < 350% | B (EC1.5 1-25 μM) | < 350% | N#Cc1ccccc1-c1ccc2ncc(NC(=O)c3nccs3)n2n1 [Compound 335]

— patent publication US9957271B2, “Substituted bicyclic aza-heterocycles and analogues as sirtuin modulators” (GlaxoSmithKline, LLC, priority 2012, dated 2018)
